{
  "source": "ChEMBL document CHEMBL5523667",
  "about": "“Blood-stage antimalarial activity, favourable metabolic stability and in vivo toxicity of novel piperazine linked 7-chloroquinoline-triazole conjugates” (Eur J Med Chem, 2024)",
  "key": {"Hemozoin": {"tested_on": "Hemozoin", "test": "Inhibition of beta-hematin formation in Plasmodium falciparum by UV-visible SpectraMax P340 plate reader analysis"}, "[1]": {"test": "Cytotoxicity against CHO cells assessed as reduction in cell viability by MTT assay", "assay_type": "toxicity, cell-based", "settings": "Chinese hamster (Cricetulus griseus)"}, "[2]": {"test": "Selectivity index, ratio of IC50 for cytotoxicity against CHO cells to IC50 for antimalarial activity against chloroquine-sensitive Plasmodium falciparum NF54", "assay_type": "toxicity, cell-based", "settings": "hamster, CHO cells versus Plasmodium falciparum NF54; read-out: Ratio IC50"}, "Plasmodium falciparum [3]": {"tested_on": "Plasmodium falciparum", "test": "Antimalarial activity against ring stage chloroquine-sensitive Plasmodium falciparum 3D7 assessed as inhibition of parasite growth by SYBR green I dye based assay", "assay_type": "functional, organism-based"}, "[4]": {"target": "T1, Falcipain 2 (Plasmodium falciparum) (UniProt Q9N6S8)", "T1 sequence (whole entry)": "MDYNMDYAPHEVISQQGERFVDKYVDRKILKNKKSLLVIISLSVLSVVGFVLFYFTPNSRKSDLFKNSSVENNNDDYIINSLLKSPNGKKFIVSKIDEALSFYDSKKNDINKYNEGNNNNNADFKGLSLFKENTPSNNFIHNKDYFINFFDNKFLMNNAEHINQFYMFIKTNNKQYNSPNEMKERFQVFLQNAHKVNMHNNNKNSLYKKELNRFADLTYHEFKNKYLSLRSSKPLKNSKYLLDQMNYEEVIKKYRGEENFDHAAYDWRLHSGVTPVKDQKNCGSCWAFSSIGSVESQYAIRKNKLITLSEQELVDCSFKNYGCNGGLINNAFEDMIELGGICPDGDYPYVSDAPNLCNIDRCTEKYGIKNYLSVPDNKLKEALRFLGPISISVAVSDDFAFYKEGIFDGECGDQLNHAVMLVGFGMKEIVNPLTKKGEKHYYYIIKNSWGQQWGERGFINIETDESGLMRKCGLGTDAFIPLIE", "test": "Inhibition of N-terminal 6His-tagged recombinant Plasmodium falciparum FP2 expressed in Escherichia coli M15 using Z-Phe-Arg-AMC as substrate at 5 uM measured after 30 mins by microplate reader analysis relative to control"}, "[5]": {"target": "T1, Falcipain 2 (Plasmodium falciparum)", "test": "Inhibition of N-terminal 6His-tagged recombinant Plasmodium falciparum FP2 expressed in Escherichia coli M15 using Z-Phe-Arg-AMC as substrate at 10 uM measured after 30 mins by microplate reader analysis relative to control"}, "Plasmodium falciparum [6]": {"tested_on": "Plasmodium falciparum", "test": "Antimalarial activity against synchronized ring stage Plasmodium falciparum assessed as accumulation of free heme at 1 to 4 uM incubated for 20 hrs by absorbance based analysis", "assay_type": "functional, organism-based", "settings": "dose 1-4 µM"}, "Plasmodium falciparum [7]": {"tested_on": "Plasmodium falciparum", "test": "Antimalarial activity against synchronized-ring stage chloroquine-sensitive Plasmodium falciparum 3D7 assessed as halt in parasite multiplication by measuring appearance of pyknotic bodies measured after 36 hrs by Giemsa staining based light microscopic analysis", "assay_type": "functional, organism-based"}, "Plasmodium falciparum [8]": {"tested_on": "Plasmodium falciparum", "test": "Antimalarial activity against synchronized-ring stage chloroquine-sensitive Plasmodium falciparum 3D7 assessed as inhibition of parasite growth by measuring pyknotic appearance measured upto 60 hrs by Giemsa staining based light microscopic analysis", "assay_type": "functional, organism-based"}, "Plasmodium falciparum [9]": {"tested_on": "Plasmodium falciparum", "test": "Antimalarial activity against synchronized-trophozoite stage chloroquine-sensitive Plasmodium falciparum 3D7 assessed as inhibition of parasite growth by measuring pyknotic appearance measured upto 60 hrs by Giemsa staining based light microscopic analysis", "assay_type": "functional, organism-based"}, "Plasmodium falciparum [10]": {"tested_on": "Plasmodium falciparum", "test": "Antimalarial activity against trophozoite stage chloroquine-sensitive Plasmodium falciparum 3D7 assessed as growth inhibition incubated with compound for 6 hrs and measured 72 hrs post invasion by SYBR Green dye based analysis", "assay_type": "functional, organism-based"}, "Plasmodium falciparum [11]": {"tested_on": "Plasmodium falciparum", "test": "Antimalarial activity against ring stage chloroquine-sensitive Plasmodium falciparum 3D7 assessed as growth inhibition incubated with compound for 6 hrs and measured 72 hrs post invasion by SYBR Green dye based analysis", "assay_type": "functional, organism-based"}, "Plasmodium falciparum [12]": {"tested_on": "Plasmodium falciparum", "test": "Antimalarial activity against schizont stage chloroquine-sensitive Plasmodium falciparum 3D7 assessed as growth inhibition incubated with compound for 6 hrs and measured 72 hrs post invasion by SYBR Green dye based analysis", "assay_type": "functional, organism-based"}, "Plasmodium berghei": {"tested_on": "Plasmodium berghei", "test": "Antimalarial activity against Plasmodium berghei ANKA infected in female BALB/c mouse assessed as survival at 50 to 100 mg/kg, ip", "assay_type": "functional", "settings": "dose 50-100 mg/kg"}, "[13]": {"test": "Drug metabolism in mouse liver S9 fraction assessed as mono-hydroxylation mediated metabolite formation at 2 uM measured for 90 mins by LC-MS/MS analysis", "assay_type": "ADME, subcellular", "settings": "s9, 1.5 h"}, "[14]": {"test": "Stability of the compound in tris buffer at pH 7.4 at 1 uM measured after 120 mins by LC-MS/MS analysis", "assay_type": "physicochemical", "settings": "pH 7.4, 2 h"}, "[15]": {"test": "Stability of the compound in simulated intestinal fluid at pH 6.8 at 1 uM measured after 120 mins by LC-MS/MS analysis", "assay_type": "ADME", "settings": "simulated gi fluid, pH 6.8, 2 h"}, "[16]": {"test": "Toxicity in mouse assessed as total distance travelled at 100 mg/kg measured over 5 mins by open field arena test (reference value: 12.45 +/- 1.48 meter)", "assay_type": "organism-based", "settings": "in vivo"}, "[17]": {"test": "Toxicity in mouse assessed as total distance travelled at 200 mg/kg measured over 5 mins by open field arena test (reference value: 12.45 +/- 1.48 meter)", "assay_type": "organism-based", "settings": "in vivo"}, "[18]": {"test": "Toxicity in mouse assessed as latency time to the central area at 200 mg/kg by open field test (reference value: 106.48 +/- 43.19 sec)", "assay_type": "organism-based", "settings": "in vivo, 43 s"}, "[19]": {"test": "Toxicity in mouse assessed as grooming time at 200 mg/kg by open field test (reference value: 10.91 +/- 2.01 sec)", "assay_type": "organism-based", "settings": "in vivo, 2 s"}, "[20]": {"test": "Toxicity in mouse assessed as effect on food intake at 100 to 200 mg/kg measured for 7 days", "assay_type": "organism-based", "settings": "in vivo, 168 h, dose 100-200 mg/kg, time 7 day"}, "[21]": {"test": "Toxicity in mouse assessed as cell death in liver at 100 to 200 mg/kg measured after 7 days by hematoxylin and eosin staining based analysis", "assay_type": "organism-based", "settings": "in vivo, 168 h, dose 100-200 mg/kg, time 7 day"}, "[22]": {"test": "Toxicity in mouse assessed as effect on water intake at 100 to 200 mg/kg measured for 7 days", "assay_type": "organism-based", "settings": "in vivo, 168 h, dose 100-200 mg/kg, time 7 day"}, "[23]": {"test": "Toxicity in mouse assessed as cell apoptosis in kidney at 100 to 200 mg/kg measured after 7 days by hematoxylin and eosin staining based analysis", "assay_type": "organism-based", "settings": "in vivo, 168 h, dose 100-200 mg/kg, time 7 day"}, "[24]": {"test": "Toxicity in mouse assessed as cell apoptosis in liver at 100 to 200 mg/kg measured after 7 days by hematoxylin and eosin staining based analysis", "assay_type": "organism-based", "settings": "in vivo, 168 h, dose 100-200 mg/kg, time 7 day"}, "[25]": {"test": "Toxicity in mouse assessed as cell apoptosis in spleen at 100 to 200 mg/kg measured after 7 days by hematoxylin and eosin staining based analysis", "assay_type": "organism-based", "settings": "in vivo, 168 h, dose 100-200 mg/kg, time 7 day"}},
  "note": "Calls of active or inactive are those of the source. No cut-off for these calls is given here.",
  "data": [
    {"smiles": "O=C(Cn1cc(CN2CCN(c3ccnc4cc(Cl)ccc34)CC2)nn1)Nc1cccc([N+](=O)[O-])c1", "values": [
      {"measurement": "IC50", "setting": "Hemozoin", "result": 19.9, "unit": "µM"},
      {"measurement": "IC50", "setting": "[1]", "result": 148, "unit": "µM"},
      {"measurement": "selectivity ratio", "setting": "[2]", "result": 160},
      {"measurement": "IC50", "setting": "Plasmodium falciparum [3]", "result": 970, "unit": "nM"},
      {"measurement": "inhibition", "setting": "[4]", "result": 27.3, "unit": "%"},
      {"measurement": "inhibition", "setting": "[5]", "result": 54.3, "unit": "%"},
      {"measurement": "Activity", "setting": "Plasmodium falciparum [6]", "result": "Active"},
      {"measurement": "Activity", "setting": "Plasmodium falciparum [7]", "result": "Active"},
      {"measurement": "Activity", "setting": "Plasmodium falciparum [8]", "result": "Active"},
      {"measurement": "Activity", "setting": "Plasmodium falciparum [9]", "result": "Active"},
      {"measurement": "IC50", "setting": "Plasmodium falciparum [10]", "result": 1960, "unit": "nM"},
      {"measurement": "IC50", "setting": "Plasmodium falciparum [11]", "result": 10.2, "unit": "µM"},
      {"measurement": "IC50", "setting": "Plasmodium falciparum [12]", "result": 3.09, "unit": "µM"},
      {"measurement": "Survival", "setting": "Plasmodium berghei", "result": "<=30 day"},
      {"measurement": "Drug metabolism", "setting": "[13]", "result": "Metabolite_Detected"},
      {"measurement": "Stability", "setting": "[14]", "result": "Stable"},
      {"measurement": "Stability", "setting": "[15]", "result": "Stable"},
      {"measurement": "Activity", "setting": "[16]", "result": 11.53, "unit": "m"},
      {"measurement": "Activity", "setting": "[17]", "result": 10.75, "unit": "m"},
      {"measurement": "Time", "setting": "[18]", "result": 54.39, "unit": "s"},
      {"measurement": "Time", "setting": "[19]", "result": 14.31, "unit": "s"},
      {"measurement": "Activity", "setting": "[20]", "result": "Non-Toxic"},
      {"measurement": "Activity", "setting": "[21]", "result": "Non-Toxic"},
      {"measurement": "Activity", "setting": "[22]", "result": "Non-Toxic"},
      {"measurement": "Activity", "setting": "[23]", "result": "Non-Toxic"},
      {"measurement": "Activity", "setting": "[24]", "result": "Non-Toxic"},
      {"measurement": "Activity", "setting": "[25]", "result": "Non-Toxic"}
    ]}
  ]
}
